Assay results reported in patent US12667572B2, “Tricyclic compounds useful in the treatment of cancer, autoimmune and inflammatory disorders” (SCHRÖDINGER, INC., priority 2021, dated 2026).

The compounds below were run against T1, full-length MALT1 protein His-MALT1(1-824) (Homo sapiens, UniProt Q9UDY8) (assay: MALT1 protease assay, Assay 2 (1 nM MALT1, Ac-LRSR-AMC substrate)). Details: 1 nM MALT1, 50 μM Ac-LRSR-AMC, 2 h pre-incubation, 8 hr incubation at RT.
T1 construct: full-length MALT1 protein His-MALT1(1-824); His (N); made in house; host or cells: baculovirus-infected insect cells
T1 sequence (Q9UDY8 1-824): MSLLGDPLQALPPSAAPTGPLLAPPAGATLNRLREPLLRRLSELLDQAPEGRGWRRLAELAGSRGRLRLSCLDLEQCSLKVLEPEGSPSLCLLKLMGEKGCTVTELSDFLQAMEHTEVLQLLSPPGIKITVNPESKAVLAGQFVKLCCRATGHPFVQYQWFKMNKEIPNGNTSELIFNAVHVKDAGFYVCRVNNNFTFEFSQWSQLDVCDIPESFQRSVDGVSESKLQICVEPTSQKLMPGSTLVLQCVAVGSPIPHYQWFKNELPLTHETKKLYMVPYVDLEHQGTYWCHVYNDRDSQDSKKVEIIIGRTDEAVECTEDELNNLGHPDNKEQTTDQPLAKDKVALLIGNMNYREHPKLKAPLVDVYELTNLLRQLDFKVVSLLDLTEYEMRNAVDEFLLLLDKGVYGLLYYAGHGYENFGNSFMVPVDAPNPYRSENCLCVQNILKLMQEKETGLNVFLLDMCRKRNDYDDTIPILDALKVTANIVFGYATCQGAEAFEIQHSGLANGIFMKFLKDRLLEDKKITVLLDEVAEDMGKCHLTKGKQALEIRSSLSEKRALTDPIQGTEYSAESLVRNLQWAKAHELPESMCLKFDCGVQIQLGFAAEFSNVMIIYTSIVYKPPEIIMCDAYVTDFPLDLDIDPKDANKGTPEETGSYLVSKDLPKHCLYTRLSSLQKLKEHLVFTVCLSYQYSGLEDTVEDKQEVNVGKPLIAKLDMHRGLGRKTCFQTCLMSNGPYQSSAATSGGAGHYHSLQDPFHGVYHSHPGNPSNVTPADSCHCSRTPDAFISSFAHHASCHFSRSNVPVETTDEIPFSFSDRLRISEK
Format: biochemical
Protocol: MALT1 protease activity was assessed in an in vitro assay using a tetrapeptide as substrate and full-length MALT1 protein His-MALT1(1-824) purified from baculovirus-infected insect cells. The tetrapeptide substrate is Ac-LRSR-AMC (SM Biochemicals) with Km measured at around 100 μM.
The final assay buffer includes 1 nM (Assay 2) or 2 nM (Assay 1) of MALT1 full-length protein, 50 μM Ac-LRSR-AMC substrate, 50 mM Tris pH 7.5, 600 mM Sodium Citrate, 1 mM DTT, 1 mM EDTA, and 0.05% BSA in 384-well plate format using black microtiter square well plates (Optiplate 384-F, Perkin Elmer).
Test compounds were dissolved in 100% DMSO at stock of 10 mM, with final DMSO concentration 0.1%. Test compounds were pre-incubated with MALT1 protein for 2 h at room temperature. Substrate was added after the pre-incubation and fluorescence signal was measured using Envision at excitation 355 nm and emission 460 nm after 8 hr incubation at RT. Increase in the assay signal was linear over this period and proportional with increase in the enzyme content.
The fluorescence units were transformed to percentage of remaining activity by using the high control (HC, median of fluorescence signal from wells containing MALT1 protein, substrate, and DMSO) and low control (LC, median of fluorescence signal from wells with substrate only) with the formula below: […]
IC50 and Hill coefficients were obtained using Graph Pad Prism (Graph Pad software, Inc, USA) with non-linear regression analysis.

`Cc1nnn(-c2ncc(NC(=O)[C@H]3CC(C)(C)c4c3cnc3cc(Cl)nn43)cc2Cl)n1` (single isomer, unassigned) [Example 140, 2-chloro-N-(5-chloro-6-(5-methyl-2H-tetrazol-2-yl)pyridin-3-yl)-8,8-dimethyl-7,8-dihydro-6H-cyclopenta[e]pyrazolo[1,5-a]pyrimidine-6-carboxamide] and `Cc1nnn(-c2ncc(NC(=O)C3CC(C)(C)c4c3cnc3cc(Cl)nn43)cc2Cl)n1` (single isomer, unassigned) [Example 141, 2-chloro-N-(5-chloro-6-(5-methyl-2H-tetrazol-2-yl)pyridin-3-yl)-8,8-dimethyl-7,8-dihydro-6H-cyclopenta[e]pyrazolo[1,5-a]pyrimidine-6-carboxamide] cannot be ordered by IC50: 100 to 1000 nM for the first, no less than 1000 nM for the second.

Compared with `C[C@]1(C(F)(F)F)C[C@@H](C(=O)Nc2cnc(-n3nccn3)c(C(F)(F)F)c2)c2cnc3cc(Cl)nn3c21` (single isomer, unassigned) [Example 55, N-(6-(2H-1,2,3-triazol-2-yl)-5˜(trifluoromethyl)pyridin-3-yl)-2-chloro-8-methyl-8-(trifluoromethyl)-7,8-dihydro-6H-cyclopenta[e]pyrazolo[1,5-a]pyrimidine-6-carboxamide], `Cc1cc(NC(=O)[C@@H]2CC(C)(C)c3c2cnc2cc(Cl)nn32)cnc1-n1nccn1` (single isomer, unassigned) [Example 180] is higher in IC50: 10 to 100 nM for the first, no less than 1000 nM for the second.

`CC1(C)CC(C(=O)Nc2cnc(OC(F)F)c(C#N)c2)c2cnc3cc(C(F)F)nn3c21` (single isomer, unassigned) [Example 126, N-(5-cyano-6-(difluoromethoxy)pyridin-3-yl)-2-(difluoromethyl)-8,8-dimethyl-7,8-dihydro-6H-cyclopenta[e]pyrazolo[1,5-a]pyrimidine-6-carboxamide] and `N#Cc1cc(NC(=O)[C@H]2CC3(CCOCC3)c3c2cnc2cc(F)nn32)cnc1OC(F)F` (single isomer, unassigned) [Example 146, N-(5-cyano-6-(difluoromethoxy)pyridin-3-yl)-2-fluoro-2′,3′,5′,6,6′,7-hexahydrospiro[cyclopenta[e]pyrazolo[1,5-a]pyrimidine-8,4′-pyran]-6-carboxamide] fall in the same range of IC50: 10 to 100 nM for the first, 10 to 100 nM for the second.

`CC1(C)CC(C(=O)Nc2cnc(-n3ncnn3)c(Cl)c2)c2cnc3cc(Cl)nn3c21` (centres unmarked) [Example 120, 2-chloro-N-(5-chloro-6-(2H-tetrazol-2-yl)pyridin-3-yl)-8,8-dimethyl-7,8-dihydro-6H-cyclopenta[e]pyrazolo[1,5-a]pyrimidine-6-carboxamide] and `CC1(C)CC(C(=O)Nc2cnc(-c3nnn(C4COC4)n3)c(Cl)c2)c2cnc3cc(Cl)nn3c21` (centres unmarked) [Example 162, 2-chloro-N-(5-chloro-6-(2-(oxetan-3-yl)-2H-tetrazol-5-yl)pyridin-3-yl)-8,8-dimethyl-7,8-dihydro-6H-cyclopenta[e]pyrazolo[1,5-a]pyrimidine-6-carboxamide] fall in the same range of IC50: 10 to 100 nM for the first, 10 to 100 nM for the second.

`CC(C)(O)c1ncc(NC(=O)[C@H]2CC3(CCC3)c3c2cnc2cc(F)nn32)cc1Cl` (single isomer, unassigned) [Example 105, N-(5-chloro-6-(2-hydroxypropan-2-yl)pyridin-3-yl)-2′-fluoro-6′,7′-dihydrospiro[cyclobutane-1,8′-cyclopenta[e]pyrazolo[1,5-a]pyrimidine]-6′-carboxamide] and `O=C(Nc1cnc([C@H](O)C(F)F)c(Cl)c1)[C@H]1CC2(CCC2)c2c1cnc1cc(F)nn21` (single isomer, unassigned) [Example 136, N-(5-chloro-6-(2,2-difluoro-1-hydroxyethyl)pyridin-3-yl)-2′-fluoro-6′,7′-dihydrospiro[cyclobutane-1,8′-cyclopenta[e]pyrazolo[1,5-a]pyrimidine]-6′-carboxamide] cannot be ordered by IC50: no less than 1000 nM for the first, 100 to 1000 nM for the second.

Compared with `CC1(C)CC(C(=O)Nc2cnc(C(=O)N3CCC3)c(C(F)(F)F)c2)c2cnc3cc(Cl)nn3c21` (centres unmarked) [Example 118, N-(6-(azetidine-1-carbonyl)-5˜(trifluoromethyl)pyridin-3-yl)-2-chloro-8,8-dimethyl-7,8-dihydro-6H-cyclopenta[e]pyrazolo[1,5-a]pyrimidine-6-carboxamide], `CNC(=O)c1ncc(NC(=O)[C@@H]2CC(C)(C)c3c2cnc2cc(Cl)nn32)cc1C(F)(F)F` (single isomer, unassigned) [Example 154, 2-chloro-8,8-dimethyl-N-(6-(methylcarbamoyl)-5-(trifluoromethyl)pyridin-3-yl)-7,8-dihydro-6H-cyclopenta[e]pyrazolo[1,5-a]pyrimidine-6-carboxamide] is higher in IC50: 10 to 100 nM for the first, no less than 1000 nM for the second.

Compared with `Cc1cn2ncc3c(c2n1)C(C)(C)C[C@H]3C(=O)Nc1cnc(-n2nccn2)c(Cl)c1` (single isomer, unassigned) [Example 188, N-(5-chloro-6-(2H-1,2,3-triazol-2-yl)pyridin-3-yl)-2,9,9-trimethyl-8,9-dihydro-7H-cyclopenta[d]imidazo[1,2-b]pyridazine-7-carboxamide], `Cc1cc(NC(=O)[C@H]2CC(C)(C)c3c2cnc2cc(F)nn32)cnc1-n1nccn1` (single isomer, unassigned) [Example 183] is lower in IC50: 100 to 1000 nM for the first, 10 to 100 nM for the second.

First: O=C(Nc1cnc(-n2nccn2)c(Cl)c1)[C@@H]1CC2(CC2)c2c1cnc1cc(F)nn21 (single isomer, unassigned) [Example 94, N-(5-chloro-6-(2H-1,2,3-triazol-2-yl)pyridin-3-yl)-2-fluoro-6,7-dihydrospiro[cyclopenta[e]pyrazolo[1,5-a]pyrimidine-8,1′-cyclopropane]-6-carboxamide]
Second: C[C@@H](O)c1cnn(-c2ncc(NC(=O)[C@@H]3CC4(CCC4)c4c3cnc3cc(Cl)nn43)cc2Cl)n1 (single isomer, unassigned) [Example 161]
The IC50 of the first is lower: 10 to 100 nM for the first, no less than 1000 nM for the second.

First: CCNC(=O)c1ncc(NC(=O)C2CC(C)(C)c3c2cnc2cc(Cl)nn32)cc1C(F)(F)F (centres unmarked) [Example 115, 2-chloro-N-(6-(ethylcarbamoyl)-5˜(trifluoromethyl)pyridin-3-yl)-8,8-dimethyl-7,8-dihydro-6H-cyclopenta[e]pyrazolo[1,5-a]pyrimidine-6-carboxamide]
Second: COc1cnc(C(F)(F)F)cc1NC(=O)C1CC(C)(C)c2c1cnc1cc(F)nn21 (single isomer, unassigned) [Example 92, 2-fluoro-N-(5-methoxy-2-(trifluoromethyl)pyridin-4-yl)-8,8-dimethyl-7,8-dihydro-6H-cyclopenta[e]pyrazolo[1,5-a]pyrimidine-6-carboxamide]
The IC50 of the first is lower: 10 to 100 nM for the first, 100 to 1000 nM for the second.

First: CC1(C)CC(C(=O)Nc2cc(C(F)F)c(-c3ccno3)c(=O)[nH]2)c2cnc3cc(Cl)nn3c21 (centres unmarked) [Example 60, 2-chloro-N-(4-(difluoromethyl)-5-(isoxazol-5-yl)-6-oxo-1,6-dihydropyridin-2-yl)-8,8-dimethyl-7,8-dihydro-6H-cyclopenta[e]pyrazolo[1,5-a]pyrimidine-6-carboxamide]
Second: CC1(C)CC(C(=O)Nc2cc(C(F)F)c(-c3cc[nH]n3)c(=O)[nH]2)c2cnc3cc(Cl)nn3c21 (centres unmarked) [Example 43, 2-chloro-N-(4-(difluoromethyl)-6-oxo-5˜(1H-pyrazol-3-yl)-1,6-dihydropyridin-2-yl)-8,8-dimethyl-7,8-dihydro-6H-cyclopenta[e]pyrazolo[1,5a]pyrimidine-6-carboxamide]
The IC50 of the first is higher: 100 to 1000 nM for the first, 10 to 100 nM for the second. The second is the more potent here.
